Laboratory results published in patent US7122558B2 (priority 2000, dated 2006).
Counter-ions that a name gives are not always drawn.

Target: T1, human muscarinic receptors M3 (Homo sapiens, UniProt P20309)
T1 construct: expressed in transfected cells; host or cells: CHO-K1 (chinese hamster ovary-K1), stably transfected; membrane preparations
Experiment: biochemical
Format: binding
Conditions: for inhibition at 0.1 µM: read-out: % INHIBITION concentration: 1.00E−07 M; for inhibition at 0.01 µM: read-out: % INHIBITION concentration: 1.00E−08 M

T1 sequence (P20309 whole entry): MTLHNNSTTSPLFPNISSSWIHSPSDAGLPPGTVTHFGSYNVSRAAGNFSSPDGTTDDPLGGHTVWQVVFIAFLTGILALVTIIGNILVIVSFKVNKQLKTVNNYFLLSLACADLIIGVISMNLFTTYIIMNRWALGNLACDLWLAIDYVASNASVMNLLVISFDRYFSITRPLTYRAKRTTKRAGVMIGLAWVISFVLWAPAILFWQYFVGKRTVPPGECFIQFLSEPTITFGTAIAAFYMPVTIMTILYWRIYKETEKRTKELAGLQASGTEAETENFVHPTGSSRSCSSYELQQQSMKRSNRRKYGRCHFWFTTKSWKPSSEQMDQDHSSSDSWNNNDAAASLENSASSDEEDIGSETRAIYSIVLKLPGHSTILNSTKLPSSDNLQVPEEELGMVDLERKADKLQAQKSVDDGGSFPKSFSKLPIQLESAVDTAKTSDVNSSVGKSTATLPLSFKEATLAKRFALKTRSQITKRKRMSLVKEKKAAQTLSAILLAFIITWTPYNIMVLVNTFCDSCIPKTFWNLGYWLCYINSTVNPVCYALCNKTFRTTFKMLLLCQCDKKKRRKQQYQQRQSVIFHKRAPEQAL

Row | SMILES | inhibition at 0.1 µM [%] | inhibition at 0.01 µM [%]
1 | O=C(O[C@H]1C[N+]2(CCc3ccccc3)CCC1CC2)[C@](O)(c1ccccc1)C1CCCCC1 [Example 70, (3R)-3-[(2R)-2-Cyclohexyl-2-hydroxy-2-phenylacetoxy]-1-phenethyl-1-azoniabicyclo[2.2.2]octane trifluoroacetate] | 71.2 | 50
2 | O=C(O[C@H]1C[N+]2(CCc3ccccc3)CCC1CC2)[C@](O)(c1ccco1)C1CCCCC1 [Example 80, (3R)-3-[(2R)-2-Cyclohexyl-2-fur-2-yl-2-hydroxyacetoxy]-1-phenethyl-1-azoniabicyclo[2.2.2]octane trifluoroacetate] | 72.4 | 55.8
3 | O=C(O[C@H]1C[N+]2(CCCc3ccccc3)CCC1CC2)[C@](O)(c1ccco1)C1CCCCC1 [Example 81, (3R)-3-[(2R)-2-Cyclohexyl-2-fur-2-yl-2-hydroxyacetoxy]-1-(3-phenylpropyl)-1-azoniabicyclo[2.2.2]octane trifluoroacetate] | 70.1 | 45.4
4 | O=C(O[C@H]1C[N+]2(CCCOc3ccccc3)CCC1CC2)[C@](O)(c1ccccc1)C1CCCC1 [Example 82, (3R)-3-[(2R)-2-Cyclopentyl-2-hydroxy-2-phenylacetoxy]-1-(3-phenoxypropyl)-1-azoniabicyclo[2.2.2]octane trifluoroacetate] | 70.6 | 55.3
5 | O=C(O[C@H]1C[N+]2(CCc3ccccc3)CCC1CC2)[C@](O)(c1ccccc1)C1CCCC1 [Example 83, (3R)-3-[(2R)-2-Cyclopentyl-2-hydroxy-2-phenylacetoxy]-1-phenethyl-1-azoniabicyclo[2.2.2]octane trifluoroacetate] | 72.7 | 60.3
6 | O=C(O[C@H]1C[N+]2(CCCSc3ccccc3)CCC1CC2)[C@](O)(c1ccccc1)C1CCCC1 [Example 84, (3R)-3-[(2R)-2-Cyclopentyl-2-hydroxy-2-phenylacetoxy]-1-(3-phenylsulfanylpropyl)-1-azoniabicyclo[2.2.2]octane trifluoroacetate] | 68.3 | 41
7 | O=C(O[C@H]1C[N+]2(CCc3ccccc3)CCC1CC2)[C@@](O)(c1ccccc1)C1CCCC1 [Example 86, (3R)-3-[(2S)-2-Cyclopentyl-2-hydroxy-2-phenylacetoxy]-1-phenethyl-1-azoniabicyclo[2.2.2]octane trifluoroacetate] | 68.2 | 37.2
8 | O=C(O[C@H]1C[N+]2(CCCOc3ccccc3)CCC1CC2)[C@](O)(c1cccs1)C1CCCCC1 [Example 88, (3R)-3-[(2S)-2-Cyclohexyl-2-hydroxy-2-thien-2-ylacetoxy]-1-(3-phenoxypropyl)-1-azoniabicyclo[2.2.2]octane trifluoroacetate] | 65.5 | 35.7
9 | O=C(O[C@H]1C[N+]2(CCc3ccccc3)CCC1CC2)[C@](O)(c1cccs1)C1CCCCC1 [Example 89, (3R)-3-[(2S)-2-Cyclohexyl-2-hydroxy-2-thien-2-ylacetoxy]-1-phenethyl-1-azoniabicyclo[2.2.2]octane trifluoroacetate] | 68.5 | 51.3
10 | O=C(O[C@H]1C[N+]2(CCc3ccccc3)CCC1CC2)[C@@](O)(c1cccs1)C1CCCCC1 [Example 92, (3R)-3-[(2R)-2-Cyclohexyl-2-hydroxy-2-thien-2-ylacetoxy]-1-phenethyl-1-azoniabicyclo[2.2.2]octane trifluoroacetate] | 69.4 | 49.2
11 | CC(C)[N+]1(C)[C@@H]2CC[C@H]1C[C@@H](OC(=O)C(CO)c1ccccc1)C2 (stereo partly shown) [Ipratropium bromide, reference compound] | 93.8 | 67.2
